Measurements: ChEMBL document CHEMBL5608201, “Discovery and optimization of thiazole-based quorum sensing inhibitors as potent blockers of Pseudomonas aeruginosa pathogenicity” (Eur J Med Chem, 2024)
In brackets after ≈: the same amount, converted by molar mass.

How the values were obtained:
[1] = Lipophilicity, log D of the compound; format: physicochemical; settings: octanol/water
[2] = target: Cytochrome P450 2D6 (Homo sapiens, UniProt P10635); assay: Inhibition of CYP2D6 (unknown origin); format: ADME
Chain of Cytochrome P450 2D6 (P10635 whole entry): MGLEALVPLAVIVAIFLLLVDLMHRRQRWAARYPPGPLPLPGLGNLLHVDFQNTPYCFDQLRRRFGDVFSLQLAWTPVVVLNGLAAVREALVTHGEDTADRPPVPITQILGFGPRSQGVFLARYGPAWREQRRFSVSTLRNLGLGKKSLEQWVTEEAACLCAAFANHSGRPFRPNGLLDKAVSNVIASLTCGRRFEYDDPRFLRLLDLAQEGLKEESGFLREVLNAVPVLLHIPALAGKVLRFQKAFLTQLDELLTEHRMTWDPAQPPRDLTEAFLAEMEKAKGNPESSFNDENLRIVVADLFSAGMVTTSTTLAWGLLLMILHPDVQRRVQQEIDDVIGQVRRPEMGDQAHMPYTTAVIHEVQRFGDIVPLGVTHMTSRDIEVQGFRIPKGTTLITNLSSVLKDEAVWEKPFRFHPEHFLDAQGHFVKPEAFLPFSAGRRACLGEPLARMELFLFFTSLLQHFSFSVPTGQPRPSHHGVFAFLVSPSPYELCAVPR

[3] = Cytotoxicity against human HepG2 cells assessed as viable cells; format: toxicity, cell-based; settings: read-out: LD50 (the source's name)
[4] = Cytotoxicity against human HEK293 cells assessed as viable cells; format: toxicity, cell-based; settings: read-out: LD50 (the source's name)
[5] = Plasma protein binding in mouse; format: ADME, cell-free; settings: read-out: PPB
[6] = test system: Pseudomonas aeruginosa; assay: Antivirulence activity against Pseudomonas aeruginosa PA14 assessed as inhibition of pyocyanin biosynthesis incubated for 16 hrs under agitation by photometric analysis; format: functional, organism-based; settings: PA14, 16 h
[7] = Cytotoxicity against human HEK293 cells assessed as viable cells at 25 uM relative to control; format: toxicity, cell-based; settings: read-out: Activity
[8] = target: T1, CYP1A (Homo sapiens, UniProt P04798+P05177); assay: Inhibition of CYP1A (unknown origin); format: ADME, protein assay
T1 sequence (P04798 whole entry): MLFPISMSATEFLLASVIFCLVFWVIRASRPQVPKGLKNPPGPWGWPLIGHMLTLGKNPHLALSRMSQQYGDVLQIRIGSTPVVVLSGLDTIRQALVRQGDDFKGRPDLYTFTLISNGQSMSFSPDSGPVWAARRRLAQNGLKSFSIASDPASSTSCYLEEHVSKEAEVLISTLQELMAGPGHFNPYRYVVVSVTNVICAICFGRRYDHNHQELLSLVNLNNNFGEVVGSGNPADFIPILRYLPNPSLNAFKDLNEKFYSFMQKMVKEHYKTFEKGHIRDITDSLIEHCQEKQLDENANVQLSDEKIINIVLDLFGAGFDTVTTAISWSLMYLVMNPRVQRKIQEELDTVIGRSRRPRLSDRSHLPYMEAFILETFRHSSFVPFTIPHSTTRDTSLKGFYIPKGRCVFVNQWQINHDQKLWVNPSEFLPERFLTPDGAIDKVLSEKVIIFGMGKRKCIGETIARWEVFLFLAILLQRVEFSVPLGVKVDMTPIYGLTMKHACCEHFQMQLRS
T1 sequence (P05177 whole entry): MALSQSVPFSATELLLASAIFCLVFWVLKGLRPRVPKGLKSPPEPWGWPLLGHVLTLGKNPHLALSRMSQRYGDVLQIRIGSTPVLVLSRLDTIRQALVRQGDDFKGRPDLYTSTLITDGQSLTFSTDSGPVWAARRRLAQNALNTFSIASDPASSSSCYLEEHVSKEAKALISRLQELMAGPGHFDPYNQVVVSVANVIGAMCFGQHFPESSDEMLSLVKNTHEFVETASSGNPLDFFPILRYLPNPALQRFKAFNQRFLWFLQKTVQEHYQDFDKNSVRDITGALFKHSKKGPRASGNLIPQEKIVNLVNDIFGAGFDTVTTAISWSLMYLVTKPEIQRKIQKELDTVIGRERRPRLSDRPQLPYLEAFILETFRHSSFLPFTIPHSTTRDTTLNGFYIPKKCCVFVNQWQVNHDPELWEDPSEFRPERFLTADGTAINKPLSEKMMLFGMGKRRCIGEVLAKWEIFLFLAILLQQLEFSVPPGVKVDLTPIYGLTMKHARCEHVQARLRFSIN

[9] = Plasma protein binding in human; format: ADME, cell-free; settings: read-out: PPB
[10] = target: Cytochrome P450 2C9 (Homo sapiens, UniProt P11712); assay: Inhibition of CYP2C9 (unknown origin); format: ADME
Chain of Cytochrome P450 2C9 (P11712 whole entry): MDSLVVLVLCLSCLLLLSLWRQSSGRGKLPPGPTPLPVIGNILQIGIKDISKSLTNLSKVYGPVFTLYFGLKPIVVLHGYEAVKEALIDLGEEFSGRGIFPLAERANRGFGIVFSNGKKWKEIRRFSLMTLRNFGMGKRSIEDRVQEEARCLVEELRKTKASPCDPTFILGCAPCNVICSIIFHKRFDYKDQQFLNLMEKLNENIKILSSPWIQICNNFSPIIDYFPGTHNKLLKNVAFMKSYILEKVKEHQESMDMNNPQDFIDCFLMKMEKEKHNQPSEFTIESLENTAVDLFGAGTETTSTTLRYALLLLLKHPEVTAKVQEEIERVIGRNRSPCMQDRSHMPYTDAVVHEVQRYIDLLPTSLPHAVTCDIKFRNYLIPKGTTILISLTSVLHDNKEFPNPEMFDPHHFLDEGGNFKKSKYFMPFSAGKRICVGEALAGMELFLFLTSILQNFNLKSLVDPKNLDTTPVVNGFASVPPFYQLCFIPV

[11] = Kinetic aqueous solubility of the compound in PBS buffer incubated for 5 mins by turbidimetric aqueous solubility assay; format: physicochemical; settings: read-out: Kinetic_solubility
[12] = target: Voltage-gated inwardly rectifying potassium channel KCNH2 (Homo sapiens, UniProt Q12809); assay: Inhibition of hERG; format: toxicity
Chain of Voltage-gated inwardly rectifying potassium channel KCNH2 (Q12809 whole entry): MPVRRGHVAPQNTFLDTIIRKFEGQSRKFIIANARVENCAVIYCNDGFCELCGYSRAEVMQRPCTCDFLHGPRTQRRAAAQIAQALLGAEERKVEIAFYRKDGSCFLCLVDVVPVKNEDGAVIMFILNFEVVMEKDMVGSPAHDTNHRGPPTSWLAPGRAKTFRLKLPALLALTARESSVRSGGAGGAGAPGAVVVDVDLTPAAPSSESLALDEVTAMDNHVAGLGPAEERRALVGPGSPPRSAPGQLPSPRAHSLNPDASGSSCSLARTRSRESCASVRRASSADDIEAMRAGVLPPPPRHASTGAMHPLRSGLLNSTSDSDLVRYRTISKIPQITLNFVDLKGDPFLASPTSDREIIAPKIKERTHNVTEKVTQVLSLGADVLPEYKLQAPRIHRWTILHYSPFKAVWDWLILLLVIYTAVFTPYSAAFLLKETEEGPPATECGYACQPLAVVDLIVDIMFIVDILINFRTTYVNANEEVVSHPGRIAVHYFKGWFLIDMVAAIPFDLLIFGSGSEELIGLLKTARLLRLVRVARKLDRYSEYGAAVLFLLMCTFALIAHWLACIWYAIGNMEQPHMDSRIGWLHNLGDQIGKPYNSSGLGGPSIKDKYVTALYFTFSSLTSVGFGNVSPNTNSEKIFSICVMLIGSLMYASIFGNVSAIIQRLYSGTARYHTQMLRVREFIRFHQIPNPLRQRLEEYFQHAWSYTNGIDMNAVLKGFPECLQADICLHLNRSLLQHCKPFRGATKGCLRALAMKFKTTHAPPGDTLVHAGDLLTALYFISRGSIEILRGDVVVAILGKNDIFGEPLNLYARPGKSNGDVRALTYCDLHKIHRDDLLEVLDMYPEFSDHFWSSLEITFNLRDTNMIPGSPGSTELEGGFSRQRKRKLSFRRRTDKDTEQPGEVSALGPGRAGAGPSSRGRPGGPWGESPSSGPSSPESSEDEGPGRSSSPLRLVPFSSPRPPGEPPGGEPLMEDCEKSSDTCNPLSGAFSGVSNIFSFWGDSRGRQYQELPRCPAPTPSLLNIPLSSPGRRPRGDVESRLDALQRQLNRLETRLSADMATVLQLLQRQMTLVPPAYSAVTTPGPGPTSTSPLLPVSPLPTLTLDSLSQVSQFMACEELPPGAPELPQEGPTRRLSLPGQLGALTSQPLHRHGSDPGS

[13] = Cytotoxicity against human HepG2 cells assessed as viable cells at 25 uM relative to control; format: toxicity, cell-based; settings: read-out: Activity
[14] = Metabolic stability in human liver S9 fraction assessed as half life; format: ADME, subcellular
[15] = Metabolic stability in mouse liver microsomes assessed as half life at 1 uM measured after 30 mins by HPLC-MS/MS analysis; format: ADME, Microsome
[16] = target: T2, Transcriptional regulator MvfR (Pseudomonas aeruginosa PA14, UniProt A0A072ZLE6); assay: Inverse agonist activity at Pseudomonas aeruginosa PqsR extracted from Escherichia coli Dh5alpha co-expressing lacZ incubated with test compound in presence of pseudomonas quinolone signal (PQS) by ONPG/heterologous reporter gene assay
T2 sequence (A0A072ZLE6 whole entry): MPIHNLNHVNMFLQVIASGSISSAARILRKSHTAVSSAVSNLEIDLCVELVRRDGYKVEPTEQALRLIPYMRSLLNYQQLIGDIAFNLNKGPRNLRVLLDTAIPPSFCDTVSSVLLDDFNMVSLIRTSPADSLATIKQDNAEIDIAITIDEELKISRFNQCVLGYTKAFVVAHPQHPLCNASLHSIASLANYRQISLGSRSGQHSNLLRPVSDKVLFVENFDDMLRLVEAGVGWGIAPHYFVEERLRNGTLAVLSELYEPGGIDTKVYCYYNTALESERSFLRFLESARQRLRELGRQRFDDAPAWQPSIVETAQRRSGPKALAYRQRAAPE

| Compound | logD [1] | IC50 [6] [nM] | solubility kinetic at 5 min [11] [µM] | half-life at 1 µM [15] [min] | IC50 [16] [nM] | also measured |
| --- | --- | --- | --- | --- | --- | --- |
| FC(F)(F)c1cc(NCc2cn(-c3ccc(Oc4ccccc4)cc3)nn2)ccn1 | 4.22 | 200 | 8 (≈ 3.29 µg/mL) | 10 | – | IC50 [2]: > 25000 nM; CC50 [3]: ~25000 nM; CC50 [4]: ~25000 nM; fraction unbound [5]: < 0.01; viability at 25 µM [7]: 48%; IC50 [8]: > 25000 nM; fraction unbound [9]: < 0.01; IC50 [10]: > 25000 nM; IC50 [12]: > 25000 nM; viability at 25 µM [13]: 55%; half-life [14]: > 60 min |
| CN(C)c1ccc(-c2ncc(CNc3ccnc(C(F)(F)F)c3)s2)cc1 | – | > 5000 | 13 (≈ 4.92 µg/mL) | 45 | 728 | – |
| FC(F)(F)c1cc(NCc2cc(-c3ccc(Oc4ccccc4)cc3)n[nH]2)ccn1 | 4.35 | 524 | 15 (≈ 6.16 µg/mL) | 23 | 117 | – |
| FC(F)(F)c1cc(NCc2ncsc2-c2ccc(Oc3ccccc3)cc2)ccn1 | – | > 5 | – | – | > 5 | – |
| FC(F)(F)c1cc(NCc2cnc(-c3ccc(Cl)cc3)s2)ccn1 | 4.28 | 591 | 36 (≈ 13.3 µg/mL) | 122 | 67 | – |
| FC(F)(F)c1cc(NCc2cnc(-c3ccc(Cl)s3)s2)ccn1 | – | > 5000 | 43 (≈ 16.2 µg/mL) | 2 | 86 | – |
| CC(C)Oc1ccc(-c2ncc(CNc3ccnc(C(F)(F)F)c3)s2)cc1 | 4.01 | 118 | 18 (≈ 7.08 µg/mL) | 29 | 18 | – |
| FC(F)(F)c1cc(NCc2nc(-c3ccc(Oc4ccccc4)cc3)cs2)ccn1 | – | > 5000 | 45 (≈ 19.2 µg/mL) | 13 | 712 | – |
| CC(C)Oc1ccc(-c2ncc(CNc3cc(C#N)nc(C(F)(F)F)c3)s2)cc1 | 5.12 | 226 | 6 (≈ 2.51 µg/mL) | 32 | 84 | – |
| FC(F)(F)c1cc(NCc2cnc(-c3ccc(C4CC4)cc3)s2)ccn1 | 4.19 | 179 | 7 (≈ 2.63 µg/mL) | 14 | 28 | – |
| FC(F)(F)c1cc(NCc2cnc(-c3ccc(Cl)nc3)s2)ccn1 | – | > 5 | 200 (≈ 74.2 µg/mL) | 49 | 221 | – |
| CC(C)Oc1ccc(-c2ncc(CNc3ccnc(Cl)c3)s2)cc1 | 5.09 | 302 | 22 (≈ 7.92 µg/mL) | 22 | 45 | – |
| FC(F)(F)c1cc(NCc2cnc(-c3ccc(Oc4ccccc4)cc3)s2)ccn1 | 3.29 | 274 | 6 (≈ 2.56 µg/mL) | 24 | 17 | – |
| FC(F)(F)c1cc(OCc2cnc(-c3ccc(Oc4ccccc4)cc3)s2)ccn1 | 3.87 | > 5000 | – | – | – | – |
| FC(F)(F)c1cc(NCc2nnc(-c3ccc(Oc4ccccc4)cc3)[nH]2)ccn1 | 3.96 | 696 | 48 (≈ 19.7 µg/mL) | 23 | 93 | – |
| COc1ccc(-c2ncc(CNc3ccnc(C(F)(F)F)c3)s2)cc1C | 4.02 | 576 | 45 (≈ 17.1 µg/mL) | 1 | 58 | – |
| FC(F)(F)c1cc(NCc2ccc(-c3ccc(Oc4ccccc4)cc3)o2)ccn1 | – | > 5000 | 63 (≈ 25.9 µg/mL) | – | – | – |
